According to EPA's ToxValDB 9.5 (doi:10.2903/j.efsa.2015.3999):
“And” between values parts separate entries of the source, which are not always exact repeats. Equal entries are not always repeated.

How the values were obtained:
Rattus norvegicus = settings: for LD50: acute, mortality
Anas platyrhynchos = settings: reproductive
Canidae = settings: subchronic; duration: 90 days; oral; Dog Other; organ weight
Daphnia magna = settings: chronic/long-term; duration: 21 days; reproduction
Apis mellifera = settings: acute, mortality
Folsomia candida = settings: chronic/long-term

Structure (SMILES): COCC(=O)N(c1c(C)cccc1C)[C@H](C)C(=O)OC [Metalaxyl-M]
- LD50 (Rattus norvegicus; F): 375 mg/kg-day
- LD50 (Rattus norvegicus; M): 953 mg/kg-day
- NOAEL (Rattus norvegicus; reproduction developmental, body weight): 50 mg/kg-day
- NOEL (Anas platyrhynchos): 117 mg/kg-day
- LC50 (Tagia sp.; acute, duration: 14 days, mortality): 830 mg/kg
- NOEC (Tagia sp.; chronic/long-term, duration: 8 weeks): 35.6 mg/kg
- LC50 (Oncorhynchus mykiss; acute, duration: 96 hours, mortality): > 100 µg/mL
- NOEC (Oncorhynchus mykiss; chronic/long-term, duration: 28 days, growth): 50 mg/L
- NOAEL (Canidae): 8 mg/kg-day
- LC50 (Colinus virginianus; acute, oral, diet, mortality): > 5620 mg/kg
- LD50 (Colinus virginianus; acute, oral, mortality): 1420 mg/kg-day and 981 mg/kg-day and 1180 mg/kg-day
- NOEL (Colinus virginianus; reproduction developmental): 8.4 mg/kg-day
- NOEC (Daphnia magna): 25 mg/L
- LD50 (Apis mellifera; dermal): > 100 µg/piece
- LD50 (Apis mellifera; oral, unspecified): > 97.3 µg/piece
- NOEC (Folsomia candida): 125 mg/kg
